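Cells were grown in 96-well plates and exposed to each compound for 48 hours at five concentrations; endpoints were interpolated linearly between bracketing concentrations, or set to the highest concentration if not reached. GI50: concentration for 50% inhibition of growth.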 Calls of active or inactive are those of the source. No stated cut-off is given here; in the data, active = GI50 up to about 1.1 µM and inactive = higher.
Legend:
Assay in all cases: NCI tumour cell line growth inhibition, 48 h
SF-539 = system: SF-539
HCC 2998 = system: HCC 2998
SR = system: SR
OVCAR-8 = system: OVCAR-8
BT-549 = system: BT-549
OVCAR-5 = system: OVCAR-5
OVCAR-4 = system: OVCAR-4
MDA-MB-231 = system: MDA-MB-231
HT-29 = system: HT-29
UO-31 = system: UO-31
UACC-62 = system: UACC-62
HOP-92 = system: HOP-92
OVCAR-3 = system: OVCAR-3
UACC-257 = system: UACC-257
U-251 = system: U-251
SK-MEL-28 = system: SK-MEL-28
CAKI-1 = system: CAKI-1
RPMI-8226 = system: RPMI-8226
DU-145 = system: DU-145
SK-MEL-5 = system: SK-MEL-5

Compound | GI50 (SF-539) | GI50 (HCC 2998) | GI50 (SR) | GI50 (OVCAR-8) | GI50 (BT-549) | GI50 (OVCAR-5) | GI50 (OVCAR-4) | GI50 (MDA-MB-231) | GI50 (HT-29) | GI50 (UO-31) | GI50 (UACC-62) | GI50 (HOP-92) | GI50 (OVCAR-3) | GI50 (UACC-257) | GI50 (U-251) | GI50 (SK-MEL-28) | GI50 (CAKI-1) | GI50 (RPMI-8226) | GI50 (DU-145) | GI50 (SK-MEL-5)
CCOc1ccc(-n2c(=O)n3c(Nc4ccc(Cl)cc4)nc4c(c(=O)n(C)c(=O)n4C)n3c2=O)cc1 | 41 µM (inactive) | 19.5 µM (inactive) | 21 µM (inactive) | 36.8 µM (inactive) | 29 µM (inactive) | 37.6 µM (inactive) | 53 µM (inactive) | 15.5 µM (inactive) | 27.7 µM (inactive) | > 100 µM (inactive) | 18.1 µM (inactive) | 22.5 µM (inactive) | 23 µM (inactive) | 23.5 µM (inactive) | 32.7 µM (inactive) | 28.2 µM (inactive) | 38.5 µM (inactive) | 24 µM (inactive) | 40.9 µM (inactive) | 19 µM (inactive)
CCOc1ccccc1/N=N/C1C(=O)N(C(=O)CC(=O)Nc2ccccc2OC)N=C1C (stereo not drawn) | 53.2 µM (inactive) | > 100 µM (inactive) | > 10 µM (inactive) | 37.5 µM (inactive) | > 100 µM (inactive) | > 100 µM (inactive) | > 100 µM (inactive) | 30.3 µM (inactive) | > 100 µM (inactive) | 27.8 µM (inactive) | 25.7 µM (inactive) | 20.3 µM (inactive) | > 100 µM (inactive) | – | 27.3 µM (inactive) | > 100 µM (inactive) | > 100 µM (inactive) | 45.2 µM (inactive) | 71.3 µM (inactive) | > 100 µM (inactive)
O=C1COc2ccc([N+](=O)[O-])cc2C(=O)C1 | > 10 µM (inactive) | > 10 µM (inactive) | > 10 µM (inactive) | > 10 µM (inactive) | > 10 µM (inactive) | > 10 µM (inactive) | > 10 µM (inactive) | > 10 µM (inactive) | > 10 µM (inactive) | > 10 µM (inactive) | > 10 µM (inactive) | 0.001 µM (active) | > 10 µM (inactive) | > 10 µM (inactive) | > 10 µM (inactive) | > 10 µM (inactive) | > 10 µM (inactive) | > 10 µM (inactive) | > 10 µM (inactive) | > 10 µM (inactive)
Oc1ccccc1C(c1cc2c(cc1O)OCO2)N1CCOCC1 (stereo not drawn) | 20.7 µM (inactive) | 18.7 µM (inactive) | 8.07 µM (inactive) | 9.29 µM (inactive) | 16.6 µM (inactive) | 25 µM (inactive) | – | 21 µM (inactive) | 18.5 µM (inactive) | 15.8 µM (inactive) | 17 µM (inactive) | 17.3 µM (inactive) | 17.5 µM (inactive) | 19.2 µM (inactive) | 16.6 µM (inactive) | 20.7 µM (inactive) | 19.7 µM (inactive) | 12.8 µM (inactive) | 37.4 µM (inactive) | 17.3 µM (inactive)
OCCN1CN(c2nc(N3CN(CCO)C3)nc(N3CN(CCO)C3)n2)C1 | 18.2 µM (inactive) | 19.5 µM (inactive) | 11.2 µM (inactive) | 45.6 µM (inactive) | 32.6 µM (inactive) | 23.1 µM (inactive) | 30.6 µM (inactive) | 19.8 µM (inactive) | 25.5 µM (inactive) | 20 µM (inactive) | 14.5 µM (inactive) | 19.9 µM (inactive) | – | 18.9 µM (inactive) | 22.6 µM (inactive) | 17.7 µM (inactive) | 22.5 µM (inactive) | 27.6 µM (inactive) | 23.6 µM (inactive) | 19.2 µM (inactive)
NC(=O)CC(N)C(N)=O (stereo not drawn) | > 100 µM (inactive) | – | > 100 µM (inactive) | > 100 µM (inactive) | > 100 µM (inactive) | – | > 100 µM (inactive) | > 100 µM (inactive) | – | – | > 100 µM (inactive) | > 100 µM (inactive) | > 100 µM (inactive) | > 100 µM (inactive) | > 100 µM (inactive) | > 100 µM (inactive) | > 100 µM (inactive) | > 100 µM (inactive) | > 100 µM (inactive) | > 100 µM (inactive)
O=C(CC(=O)N(C(=O)c1ccccc1)c1ccc(Cl)cc1)N/N=C\c1ccccc1O | 36.1 µM (inactive) | 33.6 µM (inactive) | 29.4 µM (inactive) | 35.2 µM (inactive) | 21.1 µM (inactive) | 36.6 µM (inactive) | > 100 µM (inactive) | 12.9 µM (inactive) | > 100 µM (inactive) | 38.7 µM (inactive) | – | 24.6 µM (inactive) | > 100 µM (inactive) | > 100 µM (inactive) | 48.2 µM (inactive) | > 100 µM (inactive) | > 100 µM (inactive) | > 100 µM (inactive) | > 100 µM (inactive) | 64 µM (inactive)
O=C(O)C1C(C(=O)O)C23CC2(C(=O)O)C2(C(=O)O)CCC3=C3CCCC312 (stereo not drawn) | 4.67 µM (inactive) | – | 2.24 µM (inactive) | 10.7 µM (inactive) | 17.2 µM (inactive) | 16.6 µM (inactive) | 16 µM (inactive) | 12.1 µM (inactive) | 7.45 µM (inactive) | 8.97 µM (inactive) | 10.5 µM (inactive) | 8.3 µM (inactive) | 2.5 µM (inactive) | 3.39 µM (inactive) | 5.97 µM (inactive) | 5.97 µM (inactive) | 20.2 µM (inactive) | 6.01 µM (inactive) | 11.7 µM (inactive) | 5.22 µM (inactive)
Fc1cccc(Cl)c1C1SCc2nc3cc4ccccc4cc3n21 (stereo not drawn) | 82.8 µM (inactive) | > 100 µM (inactive) | 8.32 µM (inactive) | 39.4 µM (inactive) | > 100 µM (inactive) | > 100 µM (inactive) | 28.9 µM (inactive) | 61.5 µM (inactive) | 89.1 µM (inactive) | – | 43.6 µM (inactive) | 19.6 µM (inactive) | 66.1 µM (inactive) | > 100 µM (inactive) | > 100 µM (inactive) | > 100 µM (inactive) | 99.1 µM (inactive) | > 100 µM (inactive) | > 100 µM (inactive) | –
COc1cc2c(cc1OC)C(CCN)=NCC2 | 6.75 µM (inactive) | – | 4.58 µM (inactive) | 18.2 µM (inactive) | 19.1 µM (inactive) | > 42.6 µM (inactive) | 21.2 µM (inactive) | 16.6 µM (inactive) | 20.2 µM (inactive) | 1.77 µM (inactive) | 18.2 µM (inactive) | 6.82 µM (inactive) | 18 µM (inactive) | 17.9 µM (inactive) | 16.4 µM (inactive) | 18.4 µM (inactive) | 12.6 µM (inactive) | 5.33 µM (inactive) | 17.9 µM (inactive) | 20 µM (inactive)
CC1=CC2C3(C)C(C)(C(C)=CP3(=O)c3c(C(C)C)cc(C(C)C)cc3C(C)C)C1P2(=O)c1c(C(C)C)cc(C(C)C)cc1C(C)C (stereo not drawn) | – | 1.9 µM (inactive) | 1.34 µM (inactive) | 3.37 µM (inactive) | 1.77 µM (inactive) | 2.06 µM (inactive) | 3.25 µM (inactive) | 1.77 µM (inactive) | 2.11 µM (inactive) | 1.87 µM (inactive) | 1.37 µM (inactive) | 1.64 µM (inactive) | 1.75 µM (inactive) | 1.7 µM (inactive) | 2.45 µM (inactive) | 2.58 µM (inactive) | 3.01 µM (inactive) | 0.916 µM (active) | 3.5 µM (inactive) | 1.48 µM (inactive)
N#C[BH2-][n+]1ccc(C(=O)NNCc2ccc(F)cc2)cc1 | > 100 µM (inactive) | > 100 µM (inactive) | > 100 µM (inactive) | > 100 µM (inactive) | > 100 µM (inactive) | > 100 µM (inactive) | 64.1 µM (inactive) | > 100 µM (inactive) | – | 59.7 µM (inactive) | > 100 µM (inactive) | > 100 µM (inactive) | > 100 µM (inactive) | > 100 µM (inactive) | > 100 µM (inactive) | > 100 µM (inactive) | > 100 µM (inactive) | > 100 µM (inactive) | > 100 µM (inactive) | > 100 µM (inactive)
O=c1cc(-c2ccccc2)oc2cc(Oc3nnnn3-c3ccccc3)ccc12 | 22.4 µM (inactive) | > 100 µM (inactive) | 44.9 µM (inactive) | 34.8 µM (inactive) | 21.4 µM (inactive) | – | 19.9 µM (inactive) | 42.6 µM (inactive) | 57.7 µM (inactive) | 19 µM (inactive) | > 100 µM (inactive) | 2.37 µM (inactive) | 55.6 µM (inactive) | 32.5 µM (inactive) | 19.1 µM (inactive) | 79.1 µM (inactive) | 6.14 µM (inactive) | 51.4 µM (inactive) | 32.5 µM (inactive) | 15.1 µM (inactive)
CS(=O)(=O)Nc1ccc(NCc2c[nH]c3ccc4ncccc4c23)cc1 | 24.8 µM (inactive) | – | 13.3 µM (inactive) | 34 µM (inactive) | 30.3 µM (inactive) | 40.3 µM (inactive) | 25.9 µM (inactive) | 27.4 µM (inactive) | 34.8 µM (inactive) | 33.3 µM (inactive) | 15 µM (inactive) | 52.6 µM (inactive) | 31.1 µM (inactive) | 23.1 µM (inactive) | 23.6 µM (inactive) | 26.1 µM (inactive) | 19.6 µM (inactive) | 11 µM (inactive) | 26.1 µM (inactive) | 14.9 µM (inactive)
COc1cccc(C2c3cc4c(cc3OC(N3CCCCC3)C2C)OCO4)c1OC (stereo not drawn) | 12.6 µM (inactive) | 15.3 µM (inactive) | 1.24 µM (inactive) | > 100 µM (inactive) | 9.06 µM (inactive) | 17.7 µM (inactive) | – | 14.3 µM (inactive) | 4.58 µM (inactive) | 7.05 µM (inactive) | 12.9 µM (inactive) | 5.4 µM (inactive) | 4.15 µM (inactive) | 5.94 µM (inactive) | 4.58 µM (inactive) | 16.3 µM (inactive) | 2.58 µM (inactive) | 3.44 µM (inactive) | 3.64 µM (inactive) | 6.47 µM (inactive)
